The text below walks through data of patent US9834542B2, “LXR modulators” (BRISTOL-MYERS SQUIBB COMPANY, priority 2013, dated 2017).

The assay addresses T1, LXRβ (Homo sapiens, UniProt P55055).
T1 construct: Co-transfection expression plasmids, comprising full-length LXRα (pCMX-h LXRα[…] or LXRβ (pCMX-hLXRβ)); expressed in transfected cells; host or cells: CV-1 African Green Monkey Kidney Cells
T1 sequence (P55055 1-460): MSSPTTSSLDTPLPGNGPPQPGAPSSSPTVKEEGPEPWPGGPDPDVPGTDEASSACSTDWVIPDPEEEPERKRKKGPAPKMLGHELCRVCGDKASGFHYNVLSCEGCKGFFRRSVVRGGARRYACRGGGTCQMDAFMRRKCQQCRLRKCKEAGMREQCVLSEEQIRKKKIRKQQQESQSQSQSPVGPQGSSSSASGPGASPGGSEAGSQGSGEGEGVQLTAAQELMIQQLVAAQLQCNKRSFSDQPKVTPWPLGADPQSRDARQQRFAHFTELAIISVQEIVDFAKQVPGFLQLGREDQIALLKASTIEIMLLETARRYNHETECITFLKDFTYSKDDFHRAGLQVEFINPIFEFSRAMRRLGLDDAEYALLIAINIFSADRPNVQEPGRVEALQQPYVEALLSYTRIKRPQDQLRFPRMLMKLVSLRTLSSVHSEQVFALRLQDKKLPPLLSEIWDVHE
T1 sequence (P19793 1-462 partner): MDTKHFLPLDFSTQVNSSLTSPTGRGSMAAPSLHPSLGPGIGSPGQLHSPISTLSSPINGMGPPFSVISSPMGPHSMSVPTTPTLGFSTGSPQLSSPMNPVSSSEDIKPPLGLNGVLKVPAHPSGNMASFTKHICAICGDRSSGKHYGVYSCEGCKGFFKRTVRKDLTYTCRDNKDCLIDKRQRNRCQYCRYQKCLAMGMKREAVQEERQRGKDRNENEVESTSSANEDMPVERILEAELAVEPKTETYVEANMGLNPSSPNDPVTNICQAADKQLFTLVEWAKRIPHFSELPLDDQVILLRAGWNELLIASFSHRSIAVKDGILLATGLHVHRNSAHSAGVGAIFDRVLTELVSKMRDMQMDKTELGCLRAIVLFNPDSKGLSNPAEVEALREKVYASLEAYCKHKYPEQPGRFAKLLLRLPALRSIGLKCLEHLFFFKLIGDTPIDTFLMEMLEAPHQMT
Nature of the assay: Co-transfection assay (LXRE luciferase reporter), LXRβ. The note with it: for EC50: CV-1 cells transfected with pCMX-hLXRβ and LXREx1-Tk-Luciferase, 20 hours incubation; for Emax: read-out: % Efficacy. The arrangement: % Efficacy: concentration or dose not given beside the values. Format: cell-based. The method, boiled down: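 CV-1 / pCMX-hLXRβ + LXREx1-Tk-Luc + β-gal; cpd 20 h, 37 °C, ≤0.5% DMSO; Steady-Glo luminescence. 11-pt ½-log curves, duplicate wells, sigmoidal fit → EC50; % efficacy vs high-control agonist, DMSO low control; mean of ≥2 expts.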

The mark [1] stands for this setting: LXRβ co-transfection, relative to high control 1-(2,4-difluorobenzyl)-2-oxo-6-(4-phenoxyphenyl)-4-(trifluoromethyl)-1,2-dihydropyridine-3-carbonitrile.

In turn, `CCCc1nc(-c2cc(-c3cc(F)c(CO)c(S(C)(=O)=O)c3)ccc2-n2cc(C(F)(F)F)nc2C)c(-c2ccc(OC(F)(F)F)cc2)o1` [Example 557, (3-fluoro-4′-(2-methyl-4-(trifluoromethyl)-1H-imidazol-1-yl)-5-(methylsulfonyl)-3′-(2-propyl-5-(4-(trifluoromethoxy)phenyl)oxazol-4-yl)-[1,1′-biphenyl]-4-yl)methanol] had an EC50 of 14 nM. In addition, the Emax under setting [1] was 82%.

`Cc1nc(C(F)(F)F)cn1-c1ccc(-c2cccc(S(C)(=O)=O)c2)cc1-n1nncc1-c1ccc(N(C)C)cc1` [Example 22, N,N-dimethyl-4-(1-{3′-(methylsulfonyl)-4-[2-methyl-4-(trifluoromethyl)-1H-imidazol-1-yl]biphenyl-3-yl}-1H-1,2,3-triazol-5-yl)aniline] registered an EC50 of 113 nM. Further, the Emax under setting [1] came to 99%.

In turn, `Cc1nc(-c2cc(-c3cccc(S(C)(=O)=O)c3)ccc2-n2cc(C(F)(F)F)nc2C)c(-c2ccc(OC(F)F)c(OCC3CC3)c2)o1` [Example 382, 5-(3-(cyclopropylmethoxy)-4-(difluoromethoxy)phenyl)-2-methyl-4-(4-(2-methyl-4-(trifluoromethyl)-1H-imidazol-1-yl)-3′-(methylsulfonyl)biphenyl-3-yl)oxazole] came in with an EC50 of 57 nM. The Emax under setting [1] came to 62%.

For `Cc1nc(-c2cc(-c3cccc(S(C)(=O)=O)c3)ccc2-n2cc(C(F)(F)F)nc2C)c(-c2ccc(OC(F)F)c(F)c2)o1` [Example 376, 5-(4-(difluoromethoxy)-3-fluorophenyl)-2-methyl-4-(4-(2-methyl-4-(trifluoromethyl)-1H-imidazol-1-yl)-3′-(methylsulfonyl)biphenyl-3-yl)oxazole], the half-maximal effective concentration (EC50) was 64 nM. In addition, the Emax under setting [1] came to 84%.

`Cc1nc(C(C)(F)F)cn1-c1ccc(-c2ccc(CO)c(S(C)(=O)=O)c2)cc1-n1nncc1-c1ccc(OC(F)(F)F)cc1` [Example 178, {4′-[4-(1,1-difluoroethyl)-2-methyl-1H-imidazol-1-yl]-3-(methylsulfonyl)-3′-(5-{4-[(trifluoromethyl)oxy]phenyl}-1H-1,2,3-triazol-1-yl)biphenyl-4-yl}methanol]: the response was half-maximal at 638 nM (EC50). Further, the Emax under setting [1] was 89%.

On to `CS(=O)(=O)c1cccc(-c2ccc(-n3cnc(C(F)(F)F)c3)c(-n3nncc3-c3ccc(Cl)cc3Cl)c2)c1` [Example 19, 5-(2,4-dichlorophenyl)-1-{3′-(methylsulfonyl)-4-[4-(trifluoromethyl)-1H-imidazol-1-yl]biphenyl-3-yl}-1H-1,2,3-triazole], for which the EC50 was 1070 nM. Moreover, under setting [1], the Emax was 80%.

`Cc1nc(C(F)(F)F)cn1-c1ccc(-c2cc(F)c(CO)c(S(C)(=O)=O)c2)cc1-n1nncc1C(=O)c1cccc(C(F)(F)F)c1` [Example 136, (1-{3′-fluoro-4′-(hydroxymethyl)-5′-(methylsulfonyl)-4-[2-methyl-4-(trifluoromethyl)-1H-imidazol-1-yl]biphenyl-3-yl}-1H-1,2,3-triazol-5-yl)[3-(trifluoromethyl)phenyl]meth-anone]: the midpoint of the response, the EC50, lay at 764 nM. Further, the Emax under setting [1] amounted to 69%.

In the case of `Cc1nc(Cl)cn1-c1ccc(-c2cccc(S(C)(=O)=O)c2)cc1-n1nncc1-c1ccc(Cl)cc1` [Example 150, 1-[4-(4-chloro-2-methyl-1H-imidazol-1-yl)-3′-(methylsulfonyl)biphenyl-3-yl]-5-(4-chlorophenyl)-1H-1,2,3-triazole], a half-maximal effect (EC50) was put at 1290 nM. Moreover, the Emax under setting [1] was determined as 56%.

Turning to `Cc1nc(-c2cc(-c3cc(F)c(CO)c(S(C)(=O)=O)c3)ccc2-n2cc(C(F)(F)F)nc2C)c(-c2ccc(Cl)c(OC(F)F)c2)o1` [Example 459, (3′-(5-(4-chloro-3-(difluoromethoxy)phenyl)-2-methyloxazol-4-yl)-3-fluoro-4′-(2-methyl-4-(trifluoromethyl)-1H-imidazol-1-yl)-5-(methylsulfonyl)biphenyl-4-yl)methanol], the midpoint of the response, the EC50, lay at 174 nM. Further, the Emax under setting [1] turned out to be 77%.

The molecule `CS(=O)(=O)c1cccc(-c2ccc(-n3cc(C(F)(F)F)nc3Cl)c(-n3nncc3-c3ccc(Cl)cc3)c2)c1` [Example 2, 5-(4-chlorophenyl)-1-{4-[2-chloro-4-(trifluoromethyl)-1H-imidazol-1-yl]-3′-(methylsulfonyl)biphenyl-3-yl}-1H-1,2,3-triazole] had a concentration for a half-maximal effect (EC50) of 680 nM. The Emax under setting [1] stood at 80%.

`COc1cc(-c2oc(C)nc2-c2cc(-c3cc(F)c(CO)c(S(C)(=O)=O)c3)ccc2-n2cc(C(F)(F)F)nc2C)ccc1OC(F)F` [Example 381, (3′-(5-(4-(difluoromethoxy)-3-methoxyphenyl)-2-methyloxazol-4-yl)-3-fluoro-4′-(2-methyl-4-(trifluoromethyl)-1H-imidazol-1-yl)-5-(methylsulfonyl)biphenyl-4-yl)methanol] showed a concentration giving a half-maximal response (EC50) of 18 nM. Also, under setting [1], the Emax came to 81%.

`Cc1nc(-c2ccc(Cl)cc2)c(-c2cc(-c3cccc(S(C)(=O)=O)c3)ccc2-n2cc(C(F)(F)F)nc2C)o1` [Example 605, 4-(4-chlorophenyl)-2-methyl-5-(4-(2-methyl-4-(trifluoromethyl)-1H-imidazol-1-yl)-3′-(methylsulfonyl)-[1,1′-biphenyl]-3-yl)oxazole] had an EC50 of 91 nM. For the same molecule, the Emax under setting [1] came to 89%.

Molecule `Cc1nc(-c2ccc(Cl)cc2Cl)c(-c2cc(-c3cc(F)c(CO)c(S(C)(=O)=O)c3)ccc2-n2cc(C(F)(F)F)nc2C)o1` [Example 609, (3′-(4-(2,4-dichlorophenyl)-2-methyloxazol-5-yl)-3-fluoro-4′-(2-methyl-4-(trifluoromethyl)-1H-imidazol-1-yl)-5-(methylsulfonyl)-[1,1′-biphenyl]-4-yl)methanol] returned an EC50 of 36 nM. The Emax under setting [1] was determined as 91%.

The molecule `Cc1nc(C(F)F)cn1-c1ccc(-c2cc(F)c(CO)c(S(C)(=O)=O)c2)cc1-n1nncc1-c1ccc(OC(F)(F)F)cc1` [Example 220, (4′-(4-(difluoromethyl)-2-methyl-1H-imidazol-1-yl)-3-fluoro-5-(methylsulfonyl)-3′-(5-(4-(trifluoromethoxy)phenyl)-1H-1,2,3-triazol-1-yl)-[1,1′-biphenyl]-4-yl)methanol] registered an EC50 of 782 nM. Moreover, the Emax under setting [1] was found to be 102%.

`Cc1nc(-c2cc(-c3cc(F)c(CO)c(S(C)(=O)=O)c3)ccc2-n2cc(C(F)(F)F)nc2C)c(-c2ccc(OC(F)F)c(Cl)c2)o1` [Example 399, (3′-(5-(3-chloro-4-(difluoromethoxy)phenyl)-2-methyloxazol-4-yl)-3-fluoro-4′-(2-methyl-4-(trifluoromethyl)-1H-imidazol-1-yl)-5-(methylsulfonyl)biphenyl-4-yl)methanol] yielded an EC50 of 28 nM. Further, the Emax under setting [1] worked out at 76%.

In turn, `COc1ncc(F)cc1-c1oc(C)nc1-c1cc(-c2cccc(S(C)(=O)=O)c2)ccc1-n1cc(C(F)(F)F)nc1C` [Example 400] came in with an EC50 of 1160 nM. For the same molecule, the Emax under setting [1] amounted to 55%.

Regarding `Cc1nc(-c2cc(-c3cccc(S(C)(=O)=O)c3)ccc2-n2cc(C(F)(F)F)nc2C)c(-c2ccc(OC(F)(F)F)cc2)o1` [Example 366, 2-methyl-4-{3′-(methylsulfonyl)-4-[2-methyl-4-(trifluoromethyl)-1H-imidazol-1-yl]biphenyl-3-yl}-5-{4-[(trifluoromethyl)oxy]phenyl}-1,3-oxazole], the response was half-maximal at 77 nM (EC50). Further, under setting [1], the Emax turned out to be 89%.

`Cc1nc(-c2cc(-c3cc(F)c(CO)c(S(C)(=O)=O)c3)ccc2-n2cc(C(C)O)nc2C)c(-c2ccc3c(c2)OC(F)(F)O3)o1` (single isomer, unassigned) [Example 515, 1-(1-(3-(5-(2,2-difluorobenzo[d][1,3]dioxol-5-yl)-2-methyloxazol-4-yl)-3′-fluoro-4′-(hydroxymethyl)-5′-(methylsulfonyl)-[1,1′-biphenyl]-4-yl)-2-methyl-1H-imidazol-4-yl)ethanol]: the EC50 is 1210 nM. Under setting [1], the “% Efficacy” value was 19%.
